Reference: BindingDB's records for doi:10.1021/jm010936y (2002)

Biological target: Neuronal acetylcholine receptor alpha3/beta4 (Sus scrofa)
Assay: Binding affinity to Nicotinic acetylcholine receptor alpha3-beta4 using +/-[3H]epibatidine as radioligand in pig adrenal gland

| SMILES | Ki [nM] |
| --- | --- |
| C1=C(c2ccnnc2)C2CC[C@H](CC1)N2 [2-Pyridazin-4-yl-9-aza-bicyclo[4.2.1]non-2-ene] | 2.5 |
| C1=C(c2cncnc2)C2CC[C@H](CC1)N2 [2-Pyrimidin-5-yl-9-aza-bicyclo[4.2.1]non-2-ene] | 20 |
